Reference: patent US20150259344A1, “IMIDAZOLE DERIVATIVE” (DAINIPPON SUMITOMO PHARMA CO., LTD., priority 2012, published 2015)

Target: T1, human α7 nAChR (Homo sapiens, UniProt P36544)
T1 construct: expressed in transfected cells
Assay: Evaluation of PAM activity with human α7 nACh receptor stably expressing cells (aequorin luminescence, FDSS7000)
Format: cell-based
Conditions: for activity at 10 µM: 10 μM test compound, read-out: α7PAM (%) @10 μM; for activity at 10 µM / activity at 1 µM: ACh at EC20, ratio of RLU (Max-Min) to control wells; for activity at 1 µM: 1 μM test compound (values marked *, footnote of Table 25), read-out: α7PAM (%) @1 μM; for PAM activity for α7 nAChR (in words): comparison across Tables 18 to 25
Summary of the method: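 Human α7 nAChR stable cells loaded with 4 μM Viviren (final) for 4 h at room temperature in the dark. Compounds in Hanks/20 mM HEPES/0.2% BSA were added and luminescence recorded on FDSS7000. PAM activity = RLU (Max-Min) ratio of test wells to control wells.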

T1 sequence (P36544 23-502): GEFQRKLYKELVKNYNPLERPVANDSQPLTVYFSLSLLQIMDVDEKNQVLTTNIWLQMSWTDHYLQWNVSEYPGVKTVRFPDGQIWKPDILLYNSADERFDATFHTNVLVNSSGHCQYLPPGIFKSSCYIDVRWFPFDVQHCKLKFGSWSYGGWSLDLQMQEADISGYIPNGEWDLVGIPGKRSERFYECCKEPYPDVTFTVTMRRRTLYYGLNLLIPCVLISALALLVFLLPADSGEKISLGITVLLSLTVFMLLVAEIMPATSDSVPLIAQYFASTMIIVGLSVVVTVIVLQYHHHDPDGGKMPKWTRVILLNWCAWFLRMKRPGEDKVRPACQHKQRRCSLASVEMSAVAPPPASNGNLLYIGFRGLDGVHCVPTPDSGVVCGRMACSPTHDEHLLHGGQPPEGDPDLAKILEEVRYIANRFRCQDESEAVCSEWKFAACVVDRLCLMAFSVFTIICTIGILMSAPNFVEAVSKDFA

| Compound | activity at 10 µM | also measured |
| --- | --- | --- |
| COc1cc(F)c(-c2cn([C@H]3CC[C@@H](NC(=O)C(C)(C)F)CC3)cn2)cc1F [Example 319] | 328% |  |
| CC(C)(C)C(=O)N[C@H]1CC[C@@H](n2cnc(-c3ccc(OC(F)(F)F)cc3)c2Cl)CC1 [Example 321] | 800% |  |
| CC(C)(C)C(=O)N[C@H]1CC[C@@H](n2cnc(-c3ccc(Cl)cc3)c2Cl)CC1 [Example 322] | 314% |  |
| O=C(N[C@H]1CC[C@@H](n2cnc(-c3ccc(F)cc3)c2Cl)CC1)C1CCOCC1 [Example 323] | 421% |  |
| CC(C)(F)C(=O)N[C@H]1CC[C@@H](n2cnc(-c3ccc(OC(F)(F)F)c(F)c3)c2Cl)CC1 [Example 324] | 860% |  |
| CC(C)(F)C(=O)N[C@H]1CC[C@@H](n2cnc(-c3cccc(OC(F)(F)F)c3)c2Cl)CC1 [Example 325] | 210% |  |
| CC(C)(F)C(=O)N[C@H]1CC[C@@H](n2cnc(-c3cc(OC(F)(F)F)ccc3F)c2Cl)CC1 [Example 328] |  | activity at 1 µM: 859% |
| CC(C)(F)C(=O)N[C@H]1CC[C@@H](n2cnc(-c3cc(F)ccc3F)c2Cl)CC1 [Example 329] | 643% |  |
| CC(C)(F)C(=O)N[C@H]1CC[C@@H](n2cnc(-c3ccc(F)c(OC(F)(F)F)c3)c2Cl)CC1 [Example 330] | 154% |  |
| CC(C)(F)C(=O)N[C@H]1CC[C@@H](n2cnc(-c3ccccc3OC(F)(F)F)c2Cl)CC1 [Example 331] |  | activity at 1 µM: 467% |
| CC(C)(F)C(=O)N[C@H]1CC[C@@H](n2cnc(-c3ccc(F)cc3)c2C#N)CC1 [Example 332, N-{cis-4-[5-cyano-4-(4-fluorophenyl)-1H-imidazol-1-yl]cyclohexyl}-2-fluoro-2-methylpropanamide] | 464% |  |
| CC(C)(F)C(=O)N[C@H]1CC[C@@H](n2cnc(-c3ccc(Cl)cc3)c2C#N)CC1 [Example 333] | 233% |  |
| CC(C)(C)C(=O)N[C@H]1CC[C@@H](n2cnc(-c3ccc(Cl)cc3)c2C#N)CC1 [Example 334] |  | activity at 1 µM: 212% |
| N#Cc1c(-c2ccc(F)cc2)ncn1[C@H]1CC[C@@H](NC(=O)C2CCC(F)(F)CC2)CC1 [Example 335] | 312% |  |
| N#Cc1c(-c2ccc(F)cc2)ncn1[C@H]1CC[C@@H](NC(=O)C2CCOCC2)CC1 [Example 336] | 557% |  |
| CC(C)(F)C(=O)N[C@H]1CC[C@@H](n2cnc(-c3ccccc3F)c2C#N)CC1 [Example 337] | 492% |  |
| CC(C)(F)C(=O)N[C@H]1CC[C@@H](n2cnc(-c3cccc(F)c3)c2C#N)CC1 [Example 338] | 192% |  |
| CC(C)(F)C(=O)N[C@H]1CC[C@@H](n2cnc(-c3cccc(F)c3F)c2C#N)CC1 [Example 339] | 351% |  |
| CC(C)(F)C(=O)N[C@H]1CC[C@@H](n2cnc(-c3ccc(F)cc3F)c2C#N)CC1 [Example 340] | 377% |  |
| CC(C)(F)C(=O)N[C@H]1CC[C@@H](n2cnc(-c3cc(F)ccc3F)c2C#N)CC1 [Example 341] | 233% |  |

| Compound | activity at 10 µM | also measured |
| --- | --- | --- |
| CC(C)(F)C(=O)N[C@H]1CC[C@@H](n2cnc(-c3ccc(F)c(F)c3)c2C#N)CC1 [Example 342] | 369% |  |
| CC(C)(F)C(=O)N[C@H]1CC[C@@H](n2cnc(-c3cc(F)cc(F)c3)c2C#N)CC1 [Example 343] |  | activity at 1 µM: 380% |
| CC(C)(F)C(=O)N[C@H]1CC[C@@H](n2cnc(-c3ccccc3OC(F)(F)F)c2C#N)CC1 [Example 344] | 220% |  |
| CC(C)(F)C(=O)N[C@H]1CC[C@@H](n2cnc(-c3cccc(OC(F)(F)F)c3)c2C#N)CC1 [Example 345] | 153% |  |
| CC(C)(F)C(=O)N[C@H]1CC[C@@H](n2cnc(-c3ccc(OC(F)(F)F)cc3)c2C#N)CC1 [Example 346] | 169% |  |
| CC(C)(F)C(=O)N[C@H]1CC[C@@H](n2cnc(-c3ccc(OC(F)(F)F)cc3F)c2C#N)CC1 [Example 347] | 130% |  |
| CC(C)(F)C(=O)N[C@H]1CC[C@@H](n2cnc(-c3ccc(OC(F)(F)F)c(F)c3)c2C#N)CC1 [Example 348] | 131% |  |
| CC(C)(F)C(=O)N[C@H]1CC[C@@H](n2cnc(-c3cc(OC(F)(F)F)ccc3F)c2C#N)CC1 [Example 349] | 290% |  |
| CC(C)(F)C(=O)N[C@H]1CC[C@@H](n2cnc(-c3ccc(F)c(OC(F)(F)F)c3)c2C#N)CC1 [Example 350] |  | activity at 1 µM: 670% |
| Cc1c(-c2ccc(F)cc2)ncn1[C@H]1CC[C@@H](NC(=O)C(C)(C)F)CC1 [Example 351] | 540% |  |
| Cc1c(-c2ccc(F)cc2)ncn1[C@H]1CC[C@@H](NC(=O)C2CCOCC2)CC1 [Example 352] | 164% |  |
| Cc1c(-c2ccc(F)cc2)ncn1[C@H]1CC[C@@H](NC(=O)C2CCC(F)(F)CC2)CC1 [Example 353] | 518% |  |
| Cc1c(-c2ccc(F)cc2)ncn1[C@H]1CC[C@@H](NC(=O)C(C)(C)C)CC1 [Example 354] | 230% |  |
| O=C(NC1CCOCC1)[C@H]1CC[C@@H](n2cnc(-c3cccc(F)c3)c2)CC1 [Example 355] |  | activity at 1 µM: 118% |
| O=C(NC1CCOCC1)[C@H]1CC[C@@H](n2cnc(-c3ccccc3F)c2)CC1 [Example 356] |  | activity at 1 µM: 119% |
| O=C(NC1CCOCC1)[C@H]1CC[C@@H](n2cnc(-c3ccc(F)c(F)c3)c2)CC1 [Example 357] |  | activity at 1 µM: 130% |
| O=C(NC1CCOCC1)[C@H]1CC[C@@H](n2cnc(-c3cccc(F)c3F)c2)CC1 [Example 358] |  | activity at 1 µM: 126% |
| O=C(NC1CCOCC1)[C@H]1CC[C@@H](n2cnc(-c3cccc(Cl)c3)c2Cl)CC1 [Example 362] |  | PAM activity for α7 nAChR (in words): stronger PAM activity than others |
| O=C(NC1CCOCC1)[C@H]1CC[C@@H](n2cnc(-c3ccc(Cl)cc3)c2Cl)CC1 [Example 363] |  | PAM activity for α7 nAChR (in words): stronger PAM activity than others |
| N#Cc1c(-c2ccc(OC(F)(F)F)cc2)ncn1[C@H]1CC[C@@H](C(=O)NC2CCOCC2)CC1 [Example 380] |  | PAM activity for α7 nAChR (in words): stronger PAM activity than others |

Second part, led by results:

| activity at 10 µM | Compound | also measured |
| --- | --- | --- |
| 581% | O=C(NC1CCOCC1)[C@H]1CC[C@@H](n2cnc(-c3cccc(F)c3)c2Cl)CC1 [Example 359] |  |
| 598% | O=C(NC1CCOCC1)[C@H]1CC[C@@H](n2cnc(-c3ccccc3F)c2Cl)CC1 [Example 360] |  |
| 794% | O=C(NC1COC1)[C@H]1CC[C@@H](n2cnc(-c3ccc(C(F)(F)F)cc3)c2Cl)CC1 [Example 361] |  |
| 537% | O=C(NC1COC1)[C@H]1CC[C@@H](n2cnc(-c3ccc(F)cc3)c2Cl)CC1 [Example 364] |  |
| 834% | O=C(NC1CCOC1)[C@H]1CC[C@@H](n2cnc(-c3ccc(F)cc3)c2Cl)CC1 (stereo partly drawn) [Example 366] |  |
| 941% | O=C(NC1CCOCC1)[C@H]1CC[C@@H](n2cnc(-c3cc(F)ccc3F)c2Cl)CC1 [Example 368] |  |
| 962% | O=C(NC1CCOCC1)[C@H]1CC[C@@H](n2cnc(-c3cccc(F)c3F)c2Cl)CC1 [Example 371] |  |
| 966% | N#Cc1c(-c2ccc(F)cc2)ncn1[C@H]1CC[C@@H](C(=O)NC2CCOCC2)CC1 [Example 373] |  |
| 457% | N#Cc1c(-c2cc(F)ccc2F)ncn1[C@H]1CC[C@@H](C(=O)NC2CCOCC2)CC1 [Example 375] |  |
| 426% | N#Cc1c(-c2cc(F)cc(F)c2)ncn1[C@H]1CC[C@@H](C(=O)NC2CCOCC2)CC1 [Example 376] |  |
| 988% | N#Cc1c(-c2ccc(C(F)(F)F)cc2)ncn1[C@H]1CC[C@@H](C(=O)NC2CCOCC2)CC1 [Example 377] |  |
